One data set concerns the target T1, rat M1 (Rattus norvegicus, UniProt P08482).
T1 construct: expressed in transfected cells
T1 sequence (P08482 1-460): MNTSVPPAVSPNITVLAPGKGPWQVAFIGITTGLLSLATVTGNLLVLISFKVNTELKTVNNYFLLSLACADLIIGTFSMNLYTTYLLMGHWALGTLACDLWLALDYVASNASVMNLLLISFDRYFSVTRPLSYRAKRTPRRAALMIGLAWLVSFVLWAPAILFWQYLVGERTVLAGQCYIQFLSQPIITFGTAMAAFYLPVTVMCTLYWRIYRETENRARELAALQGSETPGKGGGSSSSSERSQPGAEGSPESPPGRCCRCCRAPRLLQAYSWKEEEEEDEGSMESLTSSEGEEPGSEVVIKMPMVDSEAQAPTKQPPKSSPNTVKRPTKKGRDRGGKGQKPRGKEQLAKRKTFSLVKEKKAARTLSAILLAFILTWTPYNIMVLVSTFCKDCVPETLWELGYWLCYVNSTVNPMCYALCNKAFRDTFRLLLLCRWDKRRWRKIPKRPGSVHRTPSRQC
In words: M1 agonist calcium mobilization assay (rat). The data set is classed as cell-based. On the technique in general: Calcium assays in cells follow changes in intracellular calcium, usually with a dye or a luminescent sensor.

For data set [1], the target named is Leukotriene, Cysteinyl CysLT1 (Homo sapiens, UniProt Q9Y271). As to the kind of experiment: Eurofins radioligand binding.
Data set [2] in a line: brain homogenate binding (rat). The following applies: pH 7.4, rat (r), read-out: fu,brain. The data set is classed as in vitro ADME. On the procedure: Plasma protein binding and Brain homogenate binding: Determination of fraction unbound (f u) in plasma was conducted in vitro via equilibrium dialysis using HTDialysis (HTD) membrane plates. The top half of the plate was filled with 100 uL of Dubelco’s Phosphate Buffered Saline, pH 7.4 (DPBS). Compounds were diluted into plasma from each species (5 µM final concentration), which was aliquoted in triplicate to the ‘bottom half’ of the prepared HTD plate wells. The HTD plate was sealed and incubated for 6 hours at 37 °C. Following incubation, each well (both top and bottom halves) were transferred (20 µL) to the corresponding wells of a 96-shallow-well (V-bottom) plate. […]
The unbound fraction (f u) was calculated following the equation below, and mean values for each species were calculated from 3 replicates.
A similar approach was used to determine the degree of brain homogenate binding, which employed the same methodology and procedure with the following modifications: 1) a final compound concentration of 1 μM was used, 2) naïve rat brains were homogenized in DPBS (1:3 composition of brain: DPBS, w/w) using a Mini-Bead Beater™ machine in order to obtain brain homogenate, which was then treated in the same manner as the plasma samples in the previously described plasma protein binding assay. Fraction unbound for both plasma and brain samples was determined using Equation 4. […]

SMILES strings stand for the structures.

In general, EC50 refers to the concentration that produces a half-maximal response. By inhibition is commonly meant the share of the control response that was lost under treatment. The low end stands for little suppression, the high end for strong suppression.

Leukotriene, Cysteinyl CysLT1, sequence (Q9Y271 whole entry): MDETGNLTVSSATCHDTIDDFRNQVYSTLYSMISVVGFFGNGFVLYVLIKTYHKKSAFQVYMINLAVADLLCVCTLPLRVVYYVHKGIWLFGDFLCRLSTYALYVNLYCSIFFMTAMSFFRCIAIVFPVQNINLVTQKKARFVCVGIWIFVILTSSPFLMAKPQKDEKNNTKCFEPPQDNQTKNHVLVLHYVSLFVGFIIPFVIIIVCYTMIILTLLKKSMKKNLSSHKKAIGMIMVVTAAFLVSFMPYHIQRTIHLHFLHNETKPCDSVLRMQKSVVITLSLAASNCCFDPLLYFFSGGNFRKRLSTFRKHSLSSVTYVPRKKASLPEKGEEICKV

Turning to `Cn1cc2c(-c3cc(F)c(CN4Cc5ncccc5C4=O)c(F)c3)ccc(C(C)(C)O)c2n1` [compound 7], the “rM1 Agonist AChmax (%)” value at rat M1 (rat M1, % ACh max, n = 5) is reported as 17%. The EC50 on rat M1 (rat M1, n = 5, read-out: rM1 Agonist EC50) is more than 10 µM. Also, the inhibition at 10 µM in data set [1] came out at 8%. Also, the fraction unbound at 6 h, 1 μM in data set [2] was 0.027.
